According to PMC10337664 (Journal of Chemical Information and Modeling, 2023):

Biological target: DCAF1 (DDB1-Cul4 associated factor 1), WDR domain (Homo sapiens, UniProt Q9Y4B6)
Test: […] Å cocrystal structure
Format: binding

Sequence of DCAF1 (DDB1-Cul4 associated factor 1), WDR domain (Q9Y4B6 1038-1400): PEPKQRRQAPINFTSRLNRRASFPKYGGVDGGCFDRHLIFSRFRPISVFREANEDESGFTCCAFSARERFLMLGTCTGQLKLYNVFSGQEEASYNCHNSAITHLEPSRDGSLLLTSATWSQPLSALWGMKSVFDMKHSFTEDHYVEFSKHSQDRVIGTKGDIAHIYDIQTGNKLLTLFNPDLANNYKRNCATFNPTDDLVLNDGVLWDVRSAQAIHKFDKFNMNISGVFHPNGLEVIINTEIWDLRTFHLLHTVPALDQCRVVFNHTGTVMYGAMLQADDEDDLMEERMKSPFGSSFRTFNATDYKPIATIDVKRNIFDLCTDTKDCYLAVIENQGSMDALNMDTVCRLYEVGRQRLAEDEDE

Kd: ~70 µM
Structure (SMILES): Fc1cccc(N2CCCC(Nc3cc(N4CCOCC4)ncn3)C2)c1 (stereo not shown) [CYCA-117-70]
